Test results as given in US20110288052A1, “NOVEL COMPOUNDS, PHARMACEUTICAL COMPOSITIONS CONTAINING SAME, AND METHODS OF USE FOR SAME” (priority 2008, published 2011).
In brackets after ≈: the same amount, converted by molar mass. Read-outs that look alike come from different tables or passages of the source.

Experiments:
Format in all cases: cell-based
[1] = test system: MCF-7 human breast cancer cells (fatty acid oxidation pathway activity); assay: Fatty acid oxidation ([14C]palmitate to acid soluble products); details: for Emax at 1.56 µg/mL: at 1.56 μg/ml; for FAO SC 150: concentration leading to 150% of control acid soluble products, Neg = threshold not reached; for Emax at 0.098 µg/mL: at 0.098 μg/ml; for Emax at 6.25 µg/mL: at 6.25 μg/ml
Protocol: Measurement of Fatty Acid Oxidation and Determination of SC150 of Compounds This assay measures the degradation of [^14C]palmitate into acid soluble products and is a measure of fatty acid oxidation pathway activity in vitro. It is utilized to measure fatty acid oxidation in vitro. MCF-7 human breast cancer cells cultured as above, are plated at 2.5×10^5 cells per well in 24-well plates. Following overnight incubation, the compounds to be tested, solubilized in DMSO, are added at […], 0.39, 1.56, 6.25, 25, and 100 μg/ml in triplicate, with lower concentrations tested if necessary. DMSO is added to triplicate wells for a vehicle control. C75 is run at 5 and 10 μg/ml in triplicate as positive controls. After 1 hour of incubation, medium is removed 100 uM of [^14C] palmitate in cyclodextran and 200 uM carnitine in serum free medium (250 μl volume) is added to each well. After 30 minutes of additional incubation, the reaction is stopped by addition of 2.6N HClO4. Contents of each well are transferred to 1.5 ml Eppendorf tubes and 4N KOH is added. The tubes are incubated for 30 minutes at 60° C. 1 M NaAcetate and 3N H2SO4 is added to each tube and vortexed. The tubes are centrifuged at 1000 rpm for 5 minutes at RT. 250 μl of the supernatant is transferred to a 2 ml eppendorf tube. To each tube is added: 938 μl of chloroform:methanol (1:1), 468 μl chloroform and 281 μl of deionized water. The tubes are vortexed and centrifuged at 1000 rpm for 5 minutes at RT. 750 μl of the upper phase is transferred into a scintillation vial 5 ml of scintillant is added and vials are counted for 1 minute for ^14C. The Beckman Scintillation counter calculates the average cpm values for triplicates. The SC150 for the compounds is defined as the concentration of drug leading to a 150% increase in production of acid soluble products of [^14C] palmitate as compared to untreated controls. This is determined by plotting the average cpm for each inhibitor concentration tested, performing linear regression and computing the best-fit line, r^2 values, and 95% confidence intervals. The average cpm values are computed by the Beckman scintillation counter (Model LS6500) for each compound concentration. Computation of linear regression, best-fit line, r^2, and 95% confidence intervals are calculated using Prism Version 3.0 (Graph Pad Software). If a compound fails to achieve this 150% threshold it is considered negative. The maximum value achieved is also reported (FAO Max).

[2] = test system: Enterococcus faecalis (ATCC # 29212); assay: Broth microdilution antimicrobial assay, E. faecalis; details: for MIC: Enterococcus faecalis, ATCC29212
Protocol: Antimicrobial Properties A broth microdilution assay is used to assess the antimicrobial activity of the compounds. Compounds are tested at twofold serial dilutions, and the concentration that inhibits visible growth (OD600 at 10% of control) is defined as the MIC. Microorganisms tested include Staphylococcus aureus (ATCC # 29213), Enterococcus faecalis (ATCC # 29212), Pseudomonas aerpginosa (ATCC # 27853), and Escherichia coli (ATCC # 25922). The assay is performed in two growth media, Mueller Hinton Broth and Trypticase Soy Broth.
A blood (Tsoy/5% sheep blood) agar plate is inoculated from frozen stocks maintained in T soy broth containing 10% glycerol and incubated overnight at 37° C. Colonies are suspended in sterile broth so that the turbidity matches the turbidity of a 0.5 McFarland standard. The inoculum is diluted 1:10 in sterile broth (Mueller Hinton or Trypticase soy) and 195 μl is dispensed per well of a 96-well plate. The compounds to be tested, dissolved in DMSO, are added to the wells in 5 μl volume at the following concentrations: 25, 12.5, 6.25, 3.125, 1.56 and 0.78 μg/ml in duplicate. Additional concentrations are tested if required. 5 μl of DMSO added to duplicate wells are the vehicle control. Serial dilutions of positive control compounds, vancomycin (E. faecalis and S. aureus) and tobramycin (E. coli and P. aerpginosa), are included in each run.
After 24 hours of incubation at 37° C., plates are read at OD600 on a Molecular Devices SpectraMax Plus Spectrophotometer. Average OD600 values are computed using SOFTmax Pro Software (Molecular Devices) and MIC values are determined by linear regression analysis using Prism version 3.02 (Graph Pad Software, San Diego). The MIC is defined as the concentration of compound required to produce an OD600 reading equivalent to 10% of the vehicle control reading.

[3] = test system: MCF-7 human breast cancer cells (fatty acid synthesis pathway activity); assay: [14C]acetate incorporation into total lipids; details: MCF7, [14C]acetate incorporation into lipids
Protocol: Measurement of [^14C]acetate Incorporation into Total Lipids and Determination of IC50 of Compounds. This assay measures the incorporation of [^14C]acetate into total lipids and is a measure of fatty acid synthesis pathway activity in vitro. It is utilized to measure inhibition of fatty acid synthesis in vitro.
MCF-7 human breast cancer cells cultured as above, are plated at 5×10^4 cells per well in 24-well plates. Following overnight incubation, the compounds to be tested, solubilized in DMSO, are added at 5, 10, and 20 μg/ml in triplicate, with lower concentrations tested if necessary. DMSO is added to triplicate wells for a vehicle control. C75 is run at 5 and 10 μg/ml in triplicate as positive controls. After 4 hours of incubation, 0.25 μCi of [^14C]acetate (10 μl volume) is added to each well.
After 2 hours of additional incubation, medium is aspirated from the wells and 800 μl of chloroform:methanol (2:1) and 700 μl of 4 mM MgCl2 is added to each well. Contents of each well are transferred to 1.5 Eppendorf tubes, and spun at full-speed for 2 minutes in a high-speed Eppendorf Microcentrifuge 5415D. After removal of the aqueous (upper) layer, an additional 700 μl of chloroform:methanol (2:1) and 500 μl of 4 mM MgCl2 are added to each tube and then centrifuged for 1 minutes as above. The aqueous layer is removed with a Pasteur pipette and discarded. An additional 400 μl of chloroform:methanol (2:1) and 200 μl of 4 mM MgCl2 are added to each tube, then centrifuged and aqueous layer is discarded. The lower (organic) phase is transferred into a scintillation vial and dried at 40° C. under N2 gas. Once dried, 3 ml of scintillant (APB #NBC5104) is added and vials are counted for ^14C. The Beckman Scintillation counter calculates the average cpm values for triplicates.
The IC50 for the compounds is defined as the concentration of drug leading to a 50% reduction in [^14C]acetate incorporation into lipids compared to controls. This is determined by plotting the average cpm for each inhibitor concentration tested, performing linear regression and computing the best-fit line, r^2 values, and 95% confidence intervals. The average cpm values are computed by the Beckman scintillation counter (Model LS6500) for each compound concentration. Computation of linear regression, best-fit line, r^2, and 95% confidence intervals are calculated using Prism Version 3.0 (Graph Pad Software).

[4] = Homo sapiens, MCF7, read-out: FAO Max

| EF/MH (MIC) ([2]; Mueller Hinton Broth) | IC50 [3] [µg/mL] | EF/Tsoy (MIC) ([2]; Trypticase Soy Broth) | Compound | Emax at 1.56 µg/mL [1, 4] [%] | FAO SC 150 [1] | other results |
| --- | --- | --- | --- | --- | --- | --- |
| Neg | 19.2 ± 2 (≈ 46.8 µM) | – | CCCCCCCCC1(C)SC(=O)C=C1OCC(=O)Nc1ccc(Cl)cc1 (stereo not shown) | 106 | Neg | MIC ([2]; Trypticase Soy Broth, read-out: EF/Tsoy (MIC)): 44 µg/mL (≈ 107 µM) |
| Neg | 23 (≈ 56.7 µM) | Neg | CCCCCCCCC1(C)SC(=O)C=C1OCC(=O)Nc1ccc(OC)cc1 (stereo not shown) | – | Neg | Emax at 0.098 µg/mL [1, 4]: 90% |
| Neg | > 80 | Neg | CCCCCCCCOc1ccc(NC(=O)COC2=CC(=O)SC2(C)CCCCCCCC)cc1 (stereo not shown) | – | Neg | Emax at 0.098 µg/mL [1, 4]: 97% |
| Neg | 80.2 (≈ 175 µM) | Neg | CCCCCCCCC1(C)SC(=O)C=C1OCC(=O)Nc1ccc(-c2cccs2)cc1 (stereo not shown) | – | 61.9 µg/mL | Emax at 100 µg/mL ([1]; Homo sapiens, MCF7, at 100 μg/ml, read-out: FAO Max): 168% |
| Neg | > 80 | Neg | CCCCCCCCC1(C)SC(=O)C=C1OCC(=O)Nc1ccc(Oc2ccc(Cl)cc2)cc1 (stereo not shown) | – | Neg | Emax at 6.25 µg/mL [1, 4]: 109% |
| Neg | < 2.5 | Neg | CCCCCCCCC1(C)SC(=O)C=C1OCC(=O)Nc1ccc(C(F)(F)F)cc1 (stereo not shown) | – | Neg | Emax at 6.25 µg/mL [1, 4]: 130% |
| Neg | 8.2 (≈ 17.8 µM) | Neg | CCCCCCCCC1(C)SC(=O)C=C1OCC(=O)Nc1ccc(OC(F)(F)F)cc1 (stereo not shown) | – | – | – |
| Neg | – | Neg | CCCCCCCCC1(C)SC(=O)C=C1OCC(=O)Nc1ccc2c(c1)OCO2 (stereo not shown) | – | Neg | Emax at 0.098 µg/mL [1, 4]: 45% |
| Neg | – | Neg | CCCCCCCCC1(C)SC(=O)C=C1OCC(=O)Nc1ccccc1N1CCCCC1 (stereo not shown) | 119 | Neg | – |
| Neg | – | Neg | CCCCCCCCC1(C)SC(=O)C=C1OCC(=O)Nc1ccccc1 (stereo not shown) | – | Neg | Emax at 0.098 µg/mL [1, 4]: 122% |
| Neg | – | Neg | CCCCCCCCC1(C)SC(=O)C=C1OCC(=O)Nc1ccc(Cl)cc1C(F)(F)F (stereo not shown) | 141 | 1.9 µg/mL | – |
| – | > 80 | – | CCCCCCCC[C@]1(C)SC(=O)C=C1OCC(=O)Nc1ccccc1C(F)(F)F | 105 | Neg | – |
| – | > 80 | – | CCCCCCCC[C@]1(C)SC(=O)C=C1OCC(=O)Nc1ccccc1OC(F)(F)F | – | Neg | Emax at 25 µg/mL ([1]; Homo sapiens, MCF7, at 25 μg/ml, read-out: FAO Max): 116% |
| – | 12.3 (≈ 27.7 µM) | – | CCCCCCCCC1(C)SC(=O)C=C1OCC(=O)Nc1cccc(C(F)(F)F)c1 (stereo not shown) | – | Neg | Emax at 0.395 µg/mL ([1]; Homo sapiens, MCF7, at 0.395 μg/ml, read-out: FAO Max): 75% |
| – | 17.1 (≈ 37.2 µM) | – | CCCCCCCCC1(C)SC(=O)C=C1OCC(=O)Nc1cccc(OC(F)(F)F)c1 (stereo not shown) | 122 | Neg | – |
| – | > 80 | – | CCCCCCCCC1(C)SC(=O)C=C1OCC(=O)Nc1ccccc1SC (stereo not shown) | – | Neg | Emax at 6.25 µg/mL [1, 4]: 114% |
| – | > 80 | – | CCCCCCCCC1(C)SC(=O)C=C1OCC(=O)Nc1ccc(SC)cc1 (stereo not shown) | – | Neg | Emax at 6.25 µg/mL [1, 4]: 100% |
| – | – | – | CCCCCCCCC1(C)SC(=O)C=C1OCC(=O)Nc1ccc(Cl)cc1Cl (stereo not shown) | 141 | Neg | – |
| – | – | Neg | CCCCCCCCC1(C)OC(=O)C=C1OCC(=O)Nc1ccc(Cl)cc1 (stereo not shown) | – | Neg | Emax at 0.39 µg/mL ([1]; Homo sapiens, MCF7, at 0.39 μg/ml, read-out: FAO Max): 95%; MIC ([2]; Mueller Hinton Broth, read-out: EF/MH (MIC)): 70 µg/mL (≈ 178 µM) |
